This experiment deals with T1, MUTE_ACTL (Arabidopsis thaliana, UniProt Q9M8K6).
T1 construct: MUTE-ACTL (114-202); made in house; host or cells: E. coli BL21
Nature of the experiment: ITC direct binding. As to conditions: for binding to MUTE analyzed by ITC (in words): ITC (Supplementary Fig. 8, Supplementary Table 2). On the set-up: species or system A. thaliana. An excerpt:
A. thaliana SCRM (1-494), ΔNSPCH (98-364), MUTE (1-202), ΔNFAMA (190-414), MUTEΔC (1-114), MUTER133A_R134A, MUTEE162A_E163A, MUTER133A_R134A_E162A_E163A, SCRM-ACTL (405-494), MUTE-ACTL (114-202), SPCH-ACTL (285-364), FAMA-ACTL (306-414), MUTE_ACTLR133A_R134A, MUTE_ACTLE162A_E163A, MUTE_ACTLR133A_R134A_E162A_E163A were cloned into pGEX-4T-1 vector with an N-terminal GST tag and a thrombin cleavage sequence. For protein expression, the constructs were transformed into E. coli strain BL21. For each transformant, a single colony was selected and incubated in 10 ml LB liquid media. The overnight-incubated E. coli suspensions were transferred to 1 L LB medium and incubated at 37 °C for around 2 h until the OD600 reached 0.4–0.6. The isopropyl β-D-1-thiogalactopyranoside ([…] of final concentration) was added to the cultures and the strains were incubated at 22 °C for a further 18 h. GST-fused proteins were purified using glutathione agarose resin. The soluble portion of the cell lysate was loaded onto a GST-Sepharose column. Nonspecifically bound proteins were removed by washing the column with 20 mM Tris pH 8.0, 200 mM NaCl. The bound GST-fused protein was eluted with 10 mm glutathione and 20 mM Tris pH 8.0, 200 mM NaCl. The GST-fused proteins were exchanged with phosphate-buffered saline buffer, and then the solution was treated with 50 μg of thrombin for 10–12 h at 16 ^οC. The GST portion of the protein was cleaved during thrombin digestion, and then the whole solution was reloaded onto the glutathione S-transferase column to obtain pure protein. The purified proteins were further purified by gel filtration on a Superdex-200 (GE) column using fast protein liquid chromatography and phosphate buffer (pH 7.2) as the eluent. The purity of the protein was checked by SDS-PAGE. For detailed lists of oligo DNA and plasmid information, see Supplementary Tables 5, 6, respectively.
Binding of the small molecule Stomidazolone (3) to SCRM, MUTE, SPCH, FAMA, MUTEΔC, MUTE_ACTL, SCRM_ACTL, SPCH_ACTL and FAMA_ACTL, MUTER133A_R134A, MUTEE162A_E163A, MUTER133A_R134A_E162A_E163A, as well as SCRM binding to MUTE in the presence and absence of Stomidazolone (3) / AYSJ1059 (5) /AYSJ1061 (6) was characterized at 30 °C using a Malvern PEAQ-ITC microcalorimeter. All the protein samples were dialyzed overnight using PBS buffer containing 2% DMSO and 1 mM DTT. Stomidazolone was dissolved in PBS buffer containing 2% DMSO and 1 mM DTT. Titrations were performed by injecting 1 × 0.5-μL and 12 × 3-μL or 1 × 0.75-μL and 18 × 2-μL or 1 × 0.2-μL and 25 × 1.3-μL aliquots of 1 mM Stomidazolone / AYSJ1059 / AYSJ1061 to 5-30 μM of protein in PBS buffer pH 7.4, containing 2% DMSO and 1 mM DTT. All titrations were carried out at least twice. The raw data were corrected using buffer and protein controls and analyzed using the software supplied by the manufacturer. See Supplementary Table 3 for details.
A general note: In ITC the heat of successive injections is recorded.

T1 sequence (Q9M8K6 114-202): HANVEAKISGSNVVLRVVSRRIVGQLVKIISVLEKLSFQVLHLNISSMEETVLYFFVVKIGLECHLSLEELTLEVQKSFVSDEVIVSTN

On to `Cc1ccc(C2(NS(=O)(=O)c3ccccc3)N=C(c3ccccc3)C(=O)N2S(=O)(=O)c2ccccc2)cc1` (stereo not shown) [AYSJ1059], for which the “binding to MUTE analyzed by ITC (in words)” value was “no binding”.
The same measure, in the same setting: the entry for `O=C1C(c2ccccc2)=NC(NS(=O)(=O)c2ccccc2)(c2ccc(Br)cc2)N1S(=O)(=O)c1ccccc1` (stereo not shown) [AYSJ1061] is “no binding”.
What is called Kd is the equilibrium constant for the complex coming apart. Regarding `O=C1C(c2ccccc2)=NC(NS(=O)(=O)c2ccccc2)(c2ccccc2)N1S(=O)(=O)c1ccccc1` (stereo not shown) [Stomidazolone], the “driving force of binding to the ACTL domain (in words)” value (ITC data) is given as “primarily driven by enthalpic interactions”. In addition, where the note is “ITC, MUTE_ACTL”, the “-T△S” value is recorded as 14.4 ± 0.3, the “△G” value was -8.1 ± 0.2 and the “△H” value is -22.5 ± 0.5. Under “ITC, MUTE_ACTL, ND = no binding”, this molecule registered a Kd of 9.8 ± 1.3 µM.

Source of the values: publication PMC11500415, “Chemical inhibition of stomatal differentiation by perturbation of the master-regulatory bHLH heterodimer via an ACT-Like domain” (Nature Communications, 2024).
